The subject of the assay is MALME3 melanoma viability, CellTiter-Glo luminescence, 24 h. Nature of the assay: growth inhibition of MALME3 cells – cell-based, CellTiter-Glo, cherry-picked, orthogonal assay for MITF inhibitor project, dose response (AID 493191). (In general: ATP-based viability assays read luminescence as a measure of living cells.)

The source of these data is PubChem BioAssay AID493191 (Broad Institute, 2011).

A word on the AC50: it is the midpoint of the concentration-response curve, whichever way the signal moves.

Regarding `Cc1ccc(C(=O)N/C(=C\c2ccc(-c3ccc(Br)cc3)o2)C(=O)NCCCN(C)C)cc1`, the AC50 was 14.2 µM. With `CC(NC(=O)c1ccc([N+](=O)[O-])o1)C12CC3CC(CC(C3)C1)C2` (stereo not drawn) the figure was 31.9 µM; with `Cc1c(N=C2C=CC(=O)c3ccccc32)c(=O)n(-c2ccccc2)n1C`, 32 µM; with `CC(=O)Nc1sc(C)c(C)c1C(=O)OCC(=O)N(CC(C)C)c1c(N)n(Cc2ccccc2)c(=O)[nH]c1=O`, 6.17 µM. Take `C=C1C(=O)O[C@@H]2[C@H]1[C@@H](OC(=O)/C(C)=C/C)C/C(C)=C\C(=O)/C=C(\C)[C@@H]2O`: the AC50 was 6.41 µM. Take `Cc1cc(C)cc(OCC(=O)N/N=C/c2ccc([N+](=O)[O-])o2)c1`: the AC50 is 22.9 µM. Turning to `CC1=C(CC(=O)c2ccccc2)C(=O)c2ccccc2C1=O`, the AC50 is 12.7 µM. Turning to `OCCNc1c2ccccc2nc2c(F)c(F)c(F)c(F)c12`, the AC50 is 15.1 µM. For the compound `O=C1c2ccccc2C(=O)c2c1ncn2-c1ccccc1`, the half-maximal activity concentration (AC50) is 19.2 µM. `O=C(Cn1ncc(Cl)c(Cl)c1=O)Nc1ccc2c(c1)OCO2`: the AC50 is 25.1 µM. Next, `O=C(N/N=C/c1ccc([N+](=O)[O-])o1)c1ccccc1-n1cccc1`: 32.1 µM; `O=C(CCl)Nc1cccc(S(=O)(=O)N2CCCCCC2)c1`: 17.9 µM; `N=c1n(CC(=O)c2ccc([N+](=O)[O-])cc2)c2ccccc2n1Cc1ccc(Cl)cc1`: 17.2 µM. With `COC(=O)c1ccc2c(c1O)C(=O)c1ccccc1C2=O`, the AC50 is 2.82 µM. Next, `CCOc1c(Br)cc(CNC2CCCCCCC2)cc1OC`: 27.6 µM.

For the compound `O=C(Nc1ccc(N2CCCC2)c(Cl)c1)c1ccc([N+](=O)[O-])o1`, the AC50 is 11.1 µM. Next, `CN1CCN(c2ccccc2NC(=O)c2ccc([N+](=O)[O-])o2)CC1`: 10 µM. With `O=C(N/N=C/c1ccc([N+](=O)[O-])s1)c1cccc(Br)c1` the figure was 29.9 µM; with `O=C(Nc1ccccc1N1CCOCC1)c1ccc([N+](=O)[O-])s1`, 30.9 µM. Consider `CCC(=O)N1CCN(c2ccc(NC(=O)c3ccc([N+](=O)[O-])o3)cc2Cl)CC1`, for which the AC50 was 9.97 µM. For `Cc1c(CCOC(=O)c2ccc(Cl)cc2Cl)sc[n+]1CC(=O)c1ccc(Br)cc1`, the AC50 was 29.3 µM. In the case of `COc1ccc(NC(=O)CCC(=O)N/N=C/c2ccc([N+](=O)[O-])s2)cc1`, the AC50 is 28.2 µM.

As to `Cc1ccc(NC(=O)c2cc(N3C(=O)C=CC3=O)ccc2N2CCOCC2)cc1Cl`, the AC50 is 23.5 µM. Turning to `O=C(Nc1ccc(F)cc1)c1nc(S(=O)(=O)Cc2ccccc2)ncc1Cl`, the AC50 is 12 µM. Turning to `CC(=O)Nc1ccc(S(=O)(=O)NC2=C(N3CCN(C)CC3)C(=O)c3ccccc3C2=O)cc1`, the AC50 is 8.92 µM. Regarding `CCN1CCCC1CNC(=O)c1ccc2c(c1)NC(=O)/C(=C\c1ccc(C)cc1)S2` (stereo not drawn), the AC50 was 26 µM. Turning to `CC(=O)c1cccc(NC(=O)/C=C/c2ccc([N+](=O)[O-])s2)c1`, the AC50 is 16.8 µM. For `O=C(Nc1cccc(S(=O)(=O)N2CCCCC2)c1)c1ccc([N+](=O)[O-])o1`, the AC50 is 15.9 µM.

On to `O=[N+]([O-])c1ccc(S(=O)(=O)CC(CN2CCCCC2)N2CCCCC2)cc1` (stereo not drawn), for which the AC50 is 13.4 µM. In the case of `COc1cc(/C=N/N=C(N)N)ccc1OCc1ccc(Cl)cc1`, the concentration at half-maximal activity (AC50) is 19.9 µM. `O=C(Nc1cc(-c2nc3ncccc3o2)ccc1Cl)c1ccc([N+](=O)[O-])o1`: the AC50 is 18.2 µM. Turning to `N=c1n(Cc2ccc(Cl)cc2)c2ccccc2n1CC(O)COc1ccccc1` (stereo not drawn), the AC50 is 14.8 µM. As for `CC(C)C1CC(CCNCc2ccc(N(C)C)cc2)(c2ccccc2)CCO1` (stereo not drawn), the AC50 was 29.5 µM. Turning to `CCC(=O)N1CCN(c2ccc(NC(=O)c3ccc([N+](=O)[O-])o3)cc2)CC1`, the AC50 was 12.7 µM.

Turning to `CCOC(=O)c1c(C)oc2c(F)c(F)c(F)c(F)c2c1=O`, the AC50 is 19.4 µM.

Regarding `Cc1cc(C)cc(NC(=O)c2ccc([N+](=O)[O-])o2)c1`, the AC50 is 17.9 µM. With `CCN(CC)CCNC(=O)C1CCN(S(=O)(=O)c2c(C)noc2/C=C/c2ccccc2F)CC1`, the AC50 is 30.4 µM. On to `COc1ccccc1NS(=O)(=O)c1cccc(C(=O)N/N=C/c2ccc([N+](=O)[O-])o2)c1`, for which the AC50 is 14.6 µM.

In the case of `COc1ccc2nc(N3CCN(C(=O)c4ccc([N+](=O)[O-])o4)CC3)sc2c1`, the AC50 was 21.7 µM. Turning to `CCCCn1c(=N)n(CC(=O)c2ccc(Br)s2)c2ccccc21`, the AC50 was 33.2 µM.

Consider `C#CCCc1ccccc1/C=[N+](/C)[O-]`, for which the concentration at half-maximal activity (AC50) was 28.8 µM. Next, `COc1ccc(C(=O)/C=C/C(=O)N(CC(=O)NC2CCCCC2)CC2CCCO2)c(O)c1` (stereo not drawn): 4.8 µM; `O=C(N/N=C/c1ccc([N+](=O)[O-])o1)c1cc2ccccc2o1`: 10.5 µM; `CCCCN(C)CC(O)Cn1cc(/C=C/C(=O)c2cccs2)c2ccccc21` (stereo not drawn): 18.6 µM. `Cc1scc(C(=O)N/N=C/c2ccc([N+](=O)[O-])o2)c1C`: the AC50 is 15.7 µM.

As for `CCN1CCN(c2ccc(S(=O)(=O)N3CCCCC3)cc2NC(=O)/C=C/c2ccc([N+](=O)[O-])cc2)CC1`, the AC50 was 23.9 µM. As for `O=C(CNC(=O)c1ccccc1)N/N=C/c1ccc([N+](=O)[O-])s1`, the half-maximal activity concentration (AC50) is 26.2 µM. With `CCOC(=O)N1C(=O)[C@@](CC)(c2ccccc2)N1C(=O)OCC`, the AC50 was 26.2 µM. `CN(C)CC1CC/C(=C\c2ccc(O)cc2)C1=O` (stereo not drawn): the AC50 is 25.9 µM. With `Cc1ccccc1OCc1n(CC(=O)OC2CC(C)CCC2C(C)C)c2ccccc2[n+]1C` (stereo not drawn), the AC50 is 9.18 µM. `COc1ccc(N(Cc2cc(=O)[nH]c3ccccc23)C(=O)CCl)cc1`: the AC50 was 15.8 µM.

Consider `Cc1ccc(NC(=O)c2ccc([N+](=O)[O-])o2)cc1S(=O)(=O)N1CCOCC1`, for which the AC50 is 26.1 µM.

Take `Cc1ccc([N+](=O)[O-])cc1N1C(=O)CS/C1=N\NC(=O)c1cccnc1`: the AC50 is 24.2 µM. With `CCc1cc[n+](C2=C([O-])c3ccccc3C(=O)/C2=N\S(=O)(=O)c2cccs2)cc1` the figure was 4.51 µM; with `O=C(Cn1ncc(Cl)c(Cl)c1=O)c1ccc(Cl)cc1`, 26.5 µM; with `CCC(=O)OCCNc1cc(Sc2nccn2C)c2nonc2c1[N+](=O)[O-]`, 27.4 µM.

Take `COc1ccc(C(=O)/C=C/C(=O)N(CC(=O)NC2CCCCC2)Cc2cccs2)c(O)c1`: the concentration at half-maximal activity (AC50) is 5.25 µM.

In the case of `CCOC(=O)c1cc([N+](=O)[O-])c([N+](=O)[O-])cc1NC(C)=O`, the AC50 is 29.9 µM. Consider `CC1(C)Cc2ccccc2C2=NNC(=O)C2=N1`, for which the AC50 was 7 µM. As for `CC1=CC2/C=C(\C)CCC(O)C(O)/C=C/C(=O)C23C(=O)NC(CC(C)C)C3C1C` (stereo not drawn), the AC50 was 12.6 µM. Consider `CCOC(=O)c1ccc(NC2=CC(=O)C(=O)c3ccccc32)cc1`, for which the AC50 is 5.16 µM.

On to `COc1cccc2sc(N3CCN(C(=O)c4ccc([N+](=O)[O-])o4)CC3)nc12`, for which the AC50 is 23.4 µM. As for `CC(=O)Cn1ncc(Br)c(Br)c1=O`, the AC50 is 14.6 µM.

In the case of `CCCCC[n+]1ccn(C2=C([O-])c3ccccc3C(=O)/C2=N\S(=O)(=O)c2ccccc2)c1`, the AC50 is 14.2 µM. Consider `CC(C)(C)NC(=O)CCN(/N=C/c1ccc([N+](=O)[O-])o1)C1=NS(=O)(=O)c2ccccc21`, for which the AC50 was 31.9 µM. Regarding `COc1cccc(CNCCc2c[nH]c3ccccc23)c1OCc1ccccc1`, the AC50 was 17.9 µM. Consider `Cc1ccc2[nH]c(=O)c(CN(CCCN(C)C)C(=O)Nc3cccc(Cl)c3)cc2c1`, for which the AC50 is 24.9 µM. As for `Cc1cc(Sc2ncnc(N)c2[N+](=O)[O-])ncn1`, the AC50 is 34 µM. As for `CCN(CC)CCCNC1=C(Cl)C(=O)c2ccccc2C1=O`, the concentration at half-maximal activity (AC50) was 5.64 µM.

With `CN(C)c1nc(C=C(C#N)C#N)c(Cl)n1-c1ccc(F)cc1`, the AC50 is 21.2 µM. For `Cc1ccc(S(=O)(=O)N2CCCCC2)cc1NC(=O)Cn1ncc(Cl)c(Cl)c1=O`, the AC50 is 6.08 µM.

With `Cc1ccc(-c2nnc(SCC(=O)Nc3ccccc3F)o2)cc1`, the half-maximal activity concentration (AC50) was 19.7 µM. In the case of `O=C1c2cc([N+](=O)[O-])cc3cc([N+](=O)[O-])cc(c23)C(=O)N1c1ccccn1`, the AC50 was 21.9 µM. Next, `O=C1/C(=N\S(=O)(=O)c2cccs2)C([n+]2ccccc2)=C([O-])c2ccccc21`: 3.81 µM. With `O=C(CNc1cccc2ccccc12)N/N=C/c1ccc([N+](=O)[O-])o1`, the AC50 is 16.3 µM. With `Cc1ccc(C)c(NC(=O)/C(C#N)=C/c2cn(CC(=O)NCc3ccco3)c3ccccc23)c1` the figure was 18.6 µM. For `O=C(Nc1ccc(N2CCN(C(=O)c3ccc(Cl)cc3)CC2)cc1)c1ccc([N+](=O)[O-])o1`, the AC50 was 16.7 µM.

Turning to `Cc1cc(C)c2sc(N(CCCN(C)C)C(=O)COc3ccc(Cl)cc3)nc2c1`, the AC50 is 32.7 µM. As for `N#C/C(=C(/O)c1ccc([N+](=O)[O-])o1)c1nc2ccccc2[nH]1`, the AC50 is 9.62 µM. As for `CCN1CCN(c2ccc(NC(=O)c3ccc([N+](=O)[O-])o3)cc2Cl)CC1`, the AC50 was 14.4 µM. In the case of `Cc1ccc(C(C)C)c(OCc2nn(CC(=O)c3ccc(OC(F)F)cc3)c3[n+]2CCCCC3)c1`, the AC50 is 24.2 µM.

Turning to `CC1CCCC(NCC(O)COC(c2ccc(F)cc2)c2ccc(F)cc2)C1C` (stereo not drawn), the AC50 is 20.5 µM. For the compound `COC1=C(Nc2ccc(O)cc2)C(=O)c2ccccc2C1=O`, the AC50 is 14.3 µM. Next, `O=C(/C=C/c1cccc([N+](=O)[O-])c1)c1cccs1`: 33.1 µM; `C=CCNC1=C(Cl)C(=O)c2ccccc2C1=O`: 15.6 µM; `Cc1cc(C(C)(C)C)cc(C)c1Cn1c2[n+](c3ccc(C(F)(F)F)cc31)CCCCC2`: 24.6 µM. `O=C(CCl)N1CCN(S(=O)(=O)c2ccc3c(c2)CCC3)CC1`: the AC50 was 25.5 µM. Turning to `O=C1C=C(N(CCO)Cc2ccccc2)c2ccccc2C1=O`, the AC50 is 16 µM. Take `COc1ccc(C[C@H]2CN3C(=NC[C@@H]3C(C)C)N2CCNC(=O)c2ccc(C)c(Br)c2)cc1`: the concentration at half-maximal activity (AC50) is 27.1 µM.

`O=C(N/N=C/c1ccc(O)c2ncccc12)c1cccc(Br)c1`: the half-maximal activity concentration (AC50) was 14.7 µM. With `CCNC1=C(Cl)C(=O)c2ccccc2C1=O` the figure was 15.3 µM; with `O=C(CNc1cccc([N+](=O)[O-])c1)N/N=C/c1ccc([N+](=O)[O-])o1`, 16.9 µM. For the compound `Cc1ccccc1C(=O)N/N=C/c1ccc([N+](=O)[O-])s1`, the AC50 is 30.9 µM.
